Test results taken from patent US20250353873A1, “COMPOUNDS AND METHODS FOR MODULATING APOE EXPRESSION” (Ionis Pharmaceuticals, Inc., priority 2024, published 2025).
pIC50: −log10 of the molar value. Strand notation (5' to 3'): a small letter for the sugar, then the base; units joined by * are phosphorothioate-linked, units joined directly phosphodiester-linked; [ ] holds rarer units or linkages, { } end groups; capitals alone tell only the bases. [ms] = mesyl phosphoramidate linkage; e = 2'-O-(2-methoxyethyl) (MOE); k = constrained ethyl (cEt); [5mC] = 5-methylcytosine; d = 2'-deoxy (DNA)

Columns and labels:
human APOE RNA [1] = experiment: Dose-dependent inhibition of human APOE RNA in HepG2 cells, electroporation, 50,000 cells per well, RT-PCR normalized to GAPDH (Example 4, Tables 8-10); assay type: cell-based; conditions: HepG2, electroporation
Protocol: Modified oligonucleotides selected from the examples above were tested at various doses in HepG2 cells. The modified oligonucleotides were tested in a series of experiments that had the same culture conditions. Each experiment is identified in separate tables below.
HepG2 cells plated at a density of 50,000 cells per well were treated by electroporation with various concentrations of modified oligonucleotide as specified in the tables below. […] APOE RNA levels were measured using the human primer probe set RTS3073 (forward sequence […], designated herein as SEQ ID NO: 7; reverse sequence CCATCAGCGCCCTCAGTT, designated herein as SEQ ID NO: 8; probe sequence […], designated herein as SEQ ID NO:9). APOE RNA levels were normalized to human GAPDH. […] Results are presented as percent APOE RNA, relative to the amount of APOE RNA in untreated control cells (UTC).

human APOE RNA [2] = experiment: Dose-dependent inhibition of human APOE RNA in HepG2 cells, electroporation, 24 hours (Example 6); assay type: cell-based
Protocol: Modified oligonucleotides selected from the examples above were tested at various doses in HepG2.
HepG2 cells plated at a density of 50,000 cells per well were treated by electroporation with various concentrations of modified oligonucleotide as specified in the tables below. […] APOE RNA levels were measured using the human primer probe set RTS3073 (described herein above). APOE RNA levels were normalized to human GAPDH. Human GAPDH was amplified using human primer probe set RTS 104 (described herein above). Results are presented as percent APOE RNA, relative to the amount of APOE RNA in untreated control cells (% UTC). The half maximal inhibitory concentration (IC50) of each modified oligonucleotide was calculated in GraphPad Prism 10 (GraphPad Software, San Diego, CA) and is also presented in the tables below.

Substance | APOE RNA (% UTC) (human APOE RNA [1]; 5 nM, 24-hour treatment) | APOE RNA (% UTC) (human APOE RNA [1]; 13 nM, 24-hour treatment) | APOE RNA (% UTC) (human APOE RNA [1]; 33 nM, 24-hour treatment) | APOE RNA (% UTC) (human APOE RNA [1]; 82 nM, 24-hour treatment) | APOE RNA (% UTC) (human APOE RNA [1]; 205 nM, 24-hour treatment) | APOE RNA (% UTC) (human APOE RNA [1]; 512 nM, 24-hour treatment) | APOE RNA (% UTC) (human APOE RNA [1]; 1,280 nM, 24-hour treatment) | APOE RNA (% UTC) (human APOE RNA [1]; 3,200 nM, 24-hour treatment) | APOE RNA (% UTC) (human APOE RNA [1]; 8,000 nM, 24-hour treatment) | APOE RNA (% UTC) (human APOE RNA [1]; 20,000 nM, 24-hour treatment) | pIC50 (human APOE RNA [1]; 24-hour treatment) | APOE RNA (% UTC) (human APOE RNA [1]; 5 nM, 16-hour treatment) | APOE RNA (% UTC) (human APOE RNA [1]; 13 nM, 16-hour treatment) | APOE RNA (% UTC) (human APOE RNA [1]; 33 nM, 16-hour treatment) | APOE RNA (% UTC) (human APOE RNA [1]; 82 nM, 16-hour treatment) | APOE RNA (% UTC) (human APOE RNA [1]; 205 nM, 16-hour treatment) | APOE RNA (% UTC) (human APOE RNA [1]; 512 nM, 16-hour treatment) | APOE RNA (% UTC) (human APOE RNA [1]; 1,280 nM, 16-hour treatment) | APOE RNA (% UTC) (human APOE RNA [1]; 3,200 nM, 16-hour treatment) | APOE RNA (% UTC) (human APOE RNA [1]; 8,000 nM, 16-hour treatment) | further results
1747053 (k[5mC]*dT[ms]dT[ms]kG*kG*kT*dG[ms]dA[ms]dA[ms]dT*d[5mC]*dT*dT*dT*dA[ms]dT*kT*dA[ms]dA[ms]kA; antisense) [Compound 1747053] | 115 % UTC | 131 % UTC | 124 % UTC | 107 % UTC | 70 % UTC | 49 % UTC | 57 % UTC | 39 % UTC | 38 % UTC | 32 % UTC | 5.66 |  |  |  |  |  |  |  |  |  | 
1746805 (k[5mC]*kT*dT[ms]kG*dG[ms]dT[ms]dG[ms]dA[ms]dA[ms]dT*d[5mC]*dT*dT*dT*dA[ms]dT*dT[ms]kA*kA*kA; antisense) [Compound 1746805] | 95 % UTC | 109 % UTC | 93 % UTC | 94 % UTC | 65 % UTC | 75 % UTC | 41 % UTC | 39 % UTC | 29 % UTC | 11 % UTC | 5.87 |  |  |  |  |  |  |  |  |  | 
1746785 (k[5mC]*kT*dT[ms]kG*dG[ms]dT[ms]dG[ms]dA[ms]dA[ms]dT*d[5mC]*dT*dT*dT*dA[ms]dT*kT*kA*dA[ms]kA; antisense) [Compound 1746785] | 90 % UTC | 93 % UTC | 97 % UTC | 84 % UTC | 83 % UTC | 53 % UTC | 48 % UTC | 29 % UTC | 8 % UTC | 35 % UTC | 5.98 |  |  |  |  |  |  |  |  |  | 
1736517 (e[5mC]*eTeTeG*kG*kT*dG[ms]dA[ms]dA[ms]dT*d[5mC]*dT*dT*dT*dA[ms]dT*eT*eA*eA*eA; antisense) [Compound 1736517] |  |  |  |  |  |  |  |  |  |  |  |  |  |  |  |  |  |  |  |  | pIC50 (human APOE RNA [2]): 6.33; APOE RNA (% UTC) (human APOE RNA [2]; 5 nM): 106 % UTC; APOE RNA (% UTC) (human APOE RNA [2]; 13 nM): 92 % UTC; APOE RNA (% UTC) (human APOE RNA [2]; 33 nM): 94 % UTC; APOE RNA (% UTC) (human APOE RNA [2]; 82 nM): 84 % UTC; APOE RNA (% UTC) (human APOE RNA [2]; 205 nM): 57 % UTC; APOE RNA (% UTC) (human APOE RNA [2]; 512 nM): 42 % UTC; APOE RNA (% UTC) (human APOE RNA [2]; 1,280 nM): 35 % UTC; APOE RNA (% UTC) (human APOE RNA [2]; 3,200 nM): 22 % UTC; APOE RNA (% UTC) (human APOE RNA [2]; 8,000 nM): 13 % UTC; APOE RNA (% UTC) (human APOE RNA [2]; 20,000 nM): 10 % UTC
1736516 (e[5mC]*eTeTeG*eG*kT*dG[ms]dA[ms]dA[ms]dT*d[5mC]*dT*dT*dT*dA[ms]dT*eT*eA*eA*eA; antisense) [Compound 1736516] |  |  |  |  |  |  |  |  |  |  |  |  |  |  |  |  |  |  |  |  | pIC50 (human APOE RNA [2]): 5.94; APOE RNA (% UTC) (human APOE RNA [2]; 5 nM): 106 % UTC; APOE RNA (% UTC) (human APOE RNA [2]; 13 nM): 110 % UTC; APOE RNA (% UTC) (human APOE RNA [2]; 33 nM): 121 % UTC; APOE RNA (% UTC) (human APOE RNA [2]; 82 nM): 117 % UTC; APOE RNA (% UTC) (human APOE RNA [2]; 205 nM): 58 % UTC; APOE RNA (% UTC) (human APOE RNA [2]; 512 nM): 59 % UTC; APOE RNA (% UTC) (human APOE RNA [2]; 1,280 nM): 39 % UTC; APOE RNA (% UTC) (human APOE RNA [2]; 3,200 nM): 29 % UTC; APOE RNA (% UTC) (human APOE RNA [2]; 8,000 nM): 32 % UTC; APOE RNA (% UTC) (human APOE RNA [2]; 20,000 nM): 22 % UTC
1757566 (eA*e[5mC]eTkTkG*dG*dT*dG*dA*dA*dT*d[5mC]*dT*dT*dT*eAeTeT*eA*eA; antisense) [Compound 1757566] |  |  |  |  |  |  |  |  |  |  |  | 82 % UTC | 87 % UTC | 85 % UTC | 73 % UTC | 77 % UTC | 49 % UTC | 31 % UTC | 22 % UTC | 17 % UTC | APOE RNA (% UTC) (human APOE RNA [1]; 20,000 nM, 16-hour treatment): 21 % UTC; pIC50 (human APOE RNA [1]; 16-hour treatment): 6.26
1747051 (k[5mC]*kT*dT[ms]kG*dG[ms]kT*dG[ms]dA[ms]dA[ms]dT*d[5mC]*dT*dT*dT*dA[ms]dT*kT*dA[ms]dA[ms]kA; antisense) [Compound 1747051] | 111 % UTC | 117 % UTC | 152 % UTC | 128 % UTC | 111 % UTC | 67 % UTC | 76 % UTC | 42 % UTC | 31 % UTC | 9 % UTC | 5.54 |  |  |  |  |  |  |  |  |  | 
1746791 (k[5mC]*dT[ms]dT[ms]kG*kG*dT[ms]dG[ms]dA[ms]dA[ms]dT*d[5mC]*dT*dT*dT*dA[ms]dT*kT*kA*dA[ms]kA; antisense) [Compound 1746791] | 88 % UTC | 104 % UTC | 93 % UTC | 88 % UTC | 80 % UTC | 62 % UTC | 35 % UTC | 21 % UTC | 16 % UTC | 21 % UTC | 6.07 |  |  |  |  |  |  |  |  |  | 
1747052 (k[5mC]*dT[ms]kT*kG*dG[ms]kT*dG[ms]dA[ms]dA[ms]dT*d[5mC]*dT*dT*dT*dA[ms]dT*kT*dA[ms]dA[ms]kA; antisense) [Compound 1747052] | 150 % UTC | 113 % UTC | 148 % UTC | 127 % UTC | 108 % UTC | 79 % UTC | 53 % UTC | 46 % UTC | 31 % UTC | 19 % UTC | 5.57 |  |  |  |  |  |  |  |  |  | 
1757557: mixed MOE/cEt gapmer TTGGTGAATCTTTATTAA, sugar eeeeeddddddddeekke, linkages soossssssssssooss (eT*eTeGeG*eT*dG*dA*dA*dT*d[5mC]*dT*dT*dT*eAeTkT*kA*eA) [compound 1757557] |  |  |  |  |  |  |  |  |  |  |  | 79 % UTC | 88 % UTC | 89 % UTC | 88 % UTC | 86 % UTC | 89 % UTC | 94 % UTC | 59 % UTC | 36 % UTC | APOE RNA (% UTC) (human APOE RNA [1]; 20,000 nM, 16-hour treatment): 7 % UTC; pIC50 (human APOE RNA [1]; 16-hour treatment): 5.33
1757569 (eA*e[5mC]eTkTkG*dG*dT*dG*dA*dA*dT*d[5mC]*dT*dT*dT*kAeTeT*eA*eA; antisense) [Compound 1757569] |  |  |  |  |  |  |  |  |  |  |  | 101 % UTC | 91 % UTC | 82 % UTC | 81 % UTC | 60 % UTC | 38 % UTC | 24 % UTC | 24 % UTC | 18 % UTC | APOE RNA (% UTC) (human APOE RNA [1]; 20,000 nM, 16-hour treatment): 18 % UTC; pIC50 (human APOE RNA [1]; 16-hour treatment): 6.41
1746813 (k[5mC]*dT[ms]dT[ms]kG*dG[ms]kT*dG[ms]dA[ms]dA[ms]dT*d[5mC]*dT*dT*dT*dA[ms]dT*dT[ms]kA*kA*kA; antisense) [Compound 1746813] | 137 % UTC | 117 % UTC | 119 % UTC | 101 % UTC | 100 % UTC | 83 % UTC | 57 % UTC | 41 % UTC | 19 % UTC | 21 % UTC | 5.65 |  |  |  |  |  |  |  |  |  | 
1766537 (eT*eTeGeGeT*dG[ms]dA[ms]dA[ms]dT*d[5mC]*dT*dT*dT[ms]dA*dT*kTkAeA*eA*e[5mC]; antisense) [Compound 1766537] |  |  |  |  |  |  |  |  |  |  |  | 95 % UTC | 111 % UTC | 108 % UTC | 89 % UTC | 90 % UTC | 85 % UTC | 62 % UTC | 36 % UTC | 21 % UTC | APOE RNA (% UTC) (human APOE RNA [1]; 20,000 nM, 16-hour treatment): 5 % UTC; pIC50 (human APOE RNA [1]; 16-hour treatment): 5.70
